Structures are written as SMILES.

T1 sequence (P35462 whole entry): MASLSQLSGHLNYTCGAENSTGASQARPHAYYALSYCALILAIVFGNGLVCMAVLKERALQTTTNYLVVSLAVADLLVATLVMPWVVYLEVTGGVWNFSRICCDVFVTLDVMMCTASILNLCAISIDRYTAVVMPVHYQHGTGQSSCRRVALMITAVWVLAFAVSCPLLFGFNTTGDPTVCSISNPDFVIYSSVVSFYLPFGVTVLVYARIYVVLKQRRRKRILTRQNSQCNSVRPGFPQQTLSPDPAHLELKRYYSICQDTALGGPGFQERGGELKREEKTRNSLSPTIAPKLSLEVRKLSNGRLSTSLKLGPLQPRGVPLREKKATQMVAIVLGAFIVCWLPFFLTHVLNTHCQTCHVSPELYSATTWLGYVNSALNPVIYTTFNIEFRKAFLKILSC

One assay concerns the target T1, Cloned Human Dopamine D3 Receptors (Homo sapiens, UniProt P35462).
T1 construct: expressed in transfected cells; membrane homogenate
Description: [N-Methyl-3H]Spiroperidol binding to cloned human dopamine D3 receptors. To be noted: Table 2; unit inferred; read-out: d3Ki. In a few lines:
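Membranes from CHO cells stably expressing human D3 receptor, homogenised in 10% DMSO and stored at -80°C. Binding uses [N-methyl-3H]spiroperidol in Tris buffer, pH 7.7.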
`C[C@H]1CC[C@H](NC(=O)CCCN2CCCN(c3csc4cc(F)ccc34)CC2)CC1` [compound 826824]: the Ki is 34.2 nM.

With `CCOC(=O)[C@H]1CC[C@H](NC(=O)CCCN2CCCN(c3csc4cc(F)ccc34)CC2)CC1` [compound 826825], the Ki is 74.9 nM.

`CC[C@H]1CC[C@H](NC(=O)CCCN2CCCN(c3csc4cc(F)ccc34)CC2)CC1` [compound 826826]: the Ki came out at 27.4 nM.

`CC1CCCC(NC(=O)CCCN2CCCN(c3csc4cc(F)ccc34)CC2)C1` (stereo not drawn) [compound 826827]: the Ki worked out at 39.5 nM.

On to `CCN(C(=O)CCCN1CCCN(c2csc3cc(F)ccc23)CC1)C1CCCCC1` [compound 826829], for which the Ki was 15 nM.

Turning to `O=C(CCCN1CCCN(c2csc3cc(F)ccc23)CC1)N(CCO)C1CCCCC1` [compound 826830], the Ki came to 25.1 nM.

Regarding `O=C(CCCN1CCCN(c2csc3cc(F)ccc23)CC1)NC1CCCC1` [compound 826840], the Ki was 11 nM.

The same assay, now with this note: Table 2 part the 10th table; read-out: d3Ki.
On to `O=C([C@@H]1C[C@H]1CN1CCN(c2csc3cc(C(F)(F)F)ccc23)CC1)N1CCC(Cc2ccccc2)CC1` [compound 826662], for which the Ki was 69 nM.

Regarding `O=C([C@@H]1C[C@H]1CN1CCN(c2csc3cc(F)ccc23)CC1)N1CCCC1` [compound 826669], the Ki stood at 0.24 nM.

Regarding `CCOC(=O)C1CN(C(=O)[C@@H]2C[C@H]2CN2CCN(c3csc4cc(F)ccc34)CC2)CCC1=O` (stereo partly drawn) [compound 826671], the Ki turned out to be 6.8 nM.

`O=C([C@@H]1C[C@H]1CN1CCN(c2csc3cc(F)ccc23)CC1)N1CCC(Cc2ccccc2)CC1` [compound 826673]: the Ki was found to be 7.9 nM.

`N#CC1(c2ccccc2)CCN(C(=O)[C@@H]2C[C@H]2CN2CCN(c3csc4cc(F)ccc34)CC2)CC1` [compound 826674]: the Ki stood at 48 nM.

For the molecule `CC1CCCC(C)N1C(=O)[C@@H]1C[C@H]1CN1CCN(c2csc3cc(F)ccc23)CC1` (stereo partly drawn) [compound 826675], the Ki was 8 nM.

Turning to `O=C([C@@H]1C[C@H]1CN1CCN(c2csc3cc(F)ccc23)CC1)N1CCCCC1` [compound 826676], the Ki was 2 nM.

As to `O=C([C@@H]1C[C@H]1CN1CCCN(c2csc3cc(C(F)(F)F)ccc23)CC1)N1CCCC1` [compound 826683], the Ki turned out to be 3.7 nM.

As for `CCOC(=O)C1CN(C(=O)C2CC2CN2CCCN(c3csc4cc(C(F)(F)F)ccc34)CC2)CCC1=O` (stereo not drawn) [compound 826685], the Ki came to 154 nM.

For the molecule `O=C([C@@H]1C[C@H]1CN1CCCN(c2csc3cc(C(F)(F)F)ccc23)CC1)N1CCC(O)CC1` [compound 826686], the Ki was 26 nM.

On to `NC(=O)C1CCN(C(=O)[C@@H]2C[C@H]2CN2CCCN(c3csc4cc(C(F)(F)F)ccc34)CC2)CC1` [compound 826687], for which the Ki turned out to be 132 nM.

Turning to `O=C([C@@H]1C[C@H]1CN1CCCN(c2csc3cc(C(F)(F)F)ccc23)CC1)N1CCC(Cc2ccccc2)CC1` [compound 826688], the Ki came to 217 nM.

Regarding `N#CC1(c2ccccc2)CCN(C(=O)[C@@H]2C[C@H]2CN2CCCN(c3csc4cc(C(F)(F)F)ccc34)CC2)CC1` [compound 826689], the Ki came out at 674 nM.

On to `O=C([C@@H]1C[C@H]1CN1CCCN(c2csc3cc(C(F)(F)F)ccc23)CC1)N1CCOCC1` [compound 826691], for which the Ki was 35 nM.

As for `CCOC(=O)C1CCN(C(=O)CCCN2CCCN(c3csc4cc(F)ccc34)CC2)CC1` [compound 826831], the Ki was 2.55 nM.

With `O=C(CCCN1CCCN(c2csc3cc(F)ccc23)CC1)N1CCC(O)CC1` [compound 826832], the Ki came to 16.1 nM.

As for `CC1CCCCN1C(=O)CCCN1CCCN(c2csc3cc(F)ccc23)CC1` (stereo not drawn) [compound 826833], the Ki was 0.872 nM.

As for `CC1CCN(C(=O)CCCN2CCCN(c3csc4cc(F)ccc34)CC2)CC1` [compound 826834], the Ki worked out at 8.01 nM.

Turning to `CC1CCCN(C(=O)CCCN2CCCN(c3csc4cc(F)ccc34)CC2)C1` (stereo not drawn) [compound 826835], the Ki is 2.12 nM.

Consider `O=C(CCCN1CCCN(c2csc3cc(F)ccc23)CC1)N1CCC(N2CCCC2)CC1` [compound 826836], for which the Ki is 2.23 nM.

As to `CC1(C)CCCN(C(=O)CCCN2CCCN(c3csc4cc(F)ccc34)CC2)C1` [compound 826837], the Ki is 8.8 nM.

Regarding `CC1CC(C)CN(C(=O)CCCN2CCCN(c3csc4cc(F)ccc34)CC2)C1` (stereo not drawn) [compound 826838], the Ki is 14.6 nM.

On to `O=C(CCCN1CCCN(c2csc3cc(F)ccc23)CC1)N1CCCC1` [compound 826839], for which the Ki came to 9.37 nM.

Consider `CC1CCCN1C(=O)CCCN1CCCN(c2csc3cc(F)ccc23)CC1` (stereo not drawn) [compound 826842], for which the Ki stood at 3.66 nM.

For `CN(C)C1CCN(C(=O)CCCN2CCCN(c3csc4cc(F)ccc34)CC2)C1` (stereo not drawn) [compound 826843], the Ki came out at 126 nM.

As for `CN(C)C1CCN(C(=O)CCCN2CCN(c3csc4cc(F)ccc34)CC2)C1` (stereo not drawn) [compound 826863], the Ki is 26.6 nM.

Still in this assay, the particulars now being: d3Ki, Table 2 part the 10th table.
As for `O=C([C@@H]1C[C@H]1CN1CCN(c2csc3cc(C(F)(F)F)ccc23)CC1)N1CCC(N2CCCC2)CC1` [compound 826664], the Ki amounted to 9.4 nM.

Turning to `O=C([C@@H]1C[C@H]1CN1CCN(c2csc3cc(F)ccc23)CC1)N1CCC(O)CC1` [compound 826672], the Ki turned out to be 0.64 nM.

The assay is the same for the next values; noted with them: read-out: d3Ki.
With `C[C@H]1CC[C@H](NC(=O)[C@@H]2C[C@H]2CN2CCN(c3csc4cc(F)ccc34)CC2)CC1` [compound 826665], the Ki worked out at 1.9 nM.

In the case of `COC(=O)[C@H]1CC[C@H](NC(=O)[C@@H]2C[C@H]2CN2CCN(c3csc4cc(F)ccc34)CC2)CC1` [compound 826666], the Ki came out at 6.3 nM.

In the case of `CC[C@H]1CC[C@H](NC(=O)[C@@H]2C[C@H]2CN2CCN(c3csc4cc(F)ccc34)CC2)CC1` [compound 826667], the Ki was 2.5 nM.

For the molecule `O=C(NC1CCCCCCCC1)[C@@H]1C[C@H]1CN1CCN(c2csc3cc(F)ccc23)CC1` [compound 826668], the Ki was determined as 3.9 nM.

On to `O=C(NC1CCCC1)[C@@H]1C[C@H]1CN1CCN(c2csc3cc(F)ccc23)CC1` [compound 826670], for which the Ki is 4.2 nM.

As to `O=C(NC1CCCCC1)[C@@H]1C[C@H]1CN1CCN(c2csc3cc(F)ccc23)CC1` [compound 826677], the Ki was determined as 2.3 nM.

Take `CCOC(=O)[C@H]1CC[C@H](NC(=O)[C@@H]2C[C@H]2CN2CCCN(c3csc4cc(C(F)(F)F)ccc34)CC2)CC1` [compound 826679]: the Ki amounted to 9.1 nM.

`CC[C@H]1CC[C@H](NC(=O)[C@@H]2C[C@H]2CN2CCCN(c3csc4cc(C(F)(F)F)ccc34)CC2)CC1` [compound 826680]: the Ki came to 58 nM.

Take `O=C(NC1CCCCCCCC1)[C@@H]1C[C@H]1CN1CCCN(c2csc3cc(C(F)(F)F)ccc23)CC1` [compound 826681]: the Ki amounted to 48 nM.

For `O=C(NCCN1CCOCC1)[C@@H]1C[C@H]1CN1CCCN(c2csc3cc(C(F)(F)F)ccc23)CC1` [compound 826682], the Ki turned out to be 103 nM.

For `O=C(NC1CCCC1)[C@@H]1C[C@H]1CN1CCCN(c2csc3cc(C(F)(F)F)ccc23)CC1` [compound 826684], the Ki was 7.9 nM.

For the molecule `C[C@H]1CC[C@H](NC(=O)[C@@H]2C[C@H]2CN2CCCN(c3csc4cc(F)ccc34)CC2)CC1` [compound 826864], the Ki is 2.16 nM.

Turning to `CCOC(=O)[C@H]1CC[C@H](NC(=O)[C@@H]2C[C@H]2CN2CCCN(c3csc4cc(F)ccc34)CC2)CC1` [compound 826865], the Ki came out at 3.68 nM.

The values above are taken from patent EP1935887A1, “Heterocyclic substituted carbonyl derivatives and their use as dopamine D3 receptor ligands” (Aventis Pharmaceuticals Inc., priority 2001, dated 2002).
